From patent US7608281B2, “Composition and use of RAR antagonists for promoting chondrogenesis” (T. Michael Underhill, priority 1999, dated 2009)
Entries after “also recorded” stand apart in the source; their conditions may differ.

B1: Noggin: purified Xenopus noggin protein, secreted inhibitor of BMP-2 and -4 (protein, UniProt P49011 20-222, looked up)
Noggin: RIDQGGCQHYLHIRPAPSENLPLVDLIEHPDPIYDPKEKDLNETLLRTLMVGHFDPNFMATILPEERLGVEDLGELDLLLRQKPSGAMPAEIKGLEFYEGLQSKKHRLSKKLRRKLQMWLWSQTFCPVLYTWNDLGTRFWPRYVKVGSCYSKRSCSVPEGMVCKAAKSMHLTILRWRCQRRVQQKCAWITIQYPVISECKCSC

How the values were obtained:
[1] = target: T1, RARβ (Homo sapiens, UniProt P10826); experiment: Transient transfection: inhibition of all-trans RA induction of RARE luciferase construct in P19 cells, RARβ; assay type: cell-based; details: 1 μM AGN194301, 100 nM all-trans RA
T1 construct: expressed in transfected cells; host or cells: P19 embryonal carcinoma cells
T1 sequence (P10826 1-455): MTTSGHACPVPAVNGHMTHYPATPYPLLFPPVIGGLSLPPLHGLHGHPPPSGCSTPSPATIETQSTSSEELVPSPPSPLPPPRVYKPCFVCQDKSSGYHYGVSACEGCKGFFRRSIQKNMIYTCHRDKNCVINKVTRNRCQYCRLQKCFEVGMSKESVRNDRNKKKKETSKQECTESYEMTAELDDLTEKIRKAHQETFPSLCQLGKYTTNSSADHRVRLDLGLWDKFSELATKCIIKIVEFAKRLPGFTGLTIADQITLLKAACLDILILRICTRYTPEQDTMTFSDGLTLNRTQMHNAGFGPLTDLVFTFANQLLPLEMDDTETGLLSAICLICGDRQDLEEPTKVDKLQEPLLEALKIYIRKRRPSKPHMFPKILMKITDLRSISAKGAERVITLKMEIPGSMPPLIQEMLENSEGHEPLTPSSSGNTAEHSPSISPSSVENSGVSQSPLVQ
Method: (§1) The ability of AGN194301 to inhibit all-trans RA induction of an RARE containing luciferase construct was performed in P19 embryonal carcinoma cells as previously described with some modification (Underhill et al. (1994) Mol. Endo. 8, 274-285). P19 cells were seeded at a density of 1.5×10^4 cells/well in 6 well plates. […] Following transfection cells were washed and fresh media was added that contained 1×10^−7 M all-trans RA and various amounts of AGN194301. Twenty-four hours later cell extracts were prepared, and luciferase and β-galactosidase activity measured. Luciferase activity was normalized with β-galactosidase activity to control for differences in transfection efficiency.
(§2) RAR activity as used herein refers to the level of RA-induced transcriptional activity of the RARs. Micromass cultures were treated with the RARα-specific antagonist AGN194301 to examine whether inhibition of RARα activity stimulated cartilage formation. Addition of 1 μM AGN194301 to wild-type micromass cultures lead to a dramatic increase in nodule number with no apparent increase in nodule size as compared to untreated control cultures (FIG. 5G, J, M). […] To confirm that the concentrations utilized in these experiments inhibited RARα activity specifically, the level of RARα, RARβ and RARγ mediated RARE activation was measured with 100 nM all-trans RA in the presence of various concentrations of antagonist. […]

[2] = tested on: wild-type limb mesenchyme micromass cultures; experiment: Cartilage nodule formation in wild-type limb bud micromass cultures (alcian blue staining); assay type: cell-based, murine
Method: Micromass cultures were prepared from murine E11.25 to E11.75 fore and hind limb buds as previously described with the following modifications (Cash et al. (1997) J. Cell Biol. 136, 445-457). After proteolytic digestion cells were filtered through a Cell Sieve ([…], Falcon) to obtain a single cell suspension. Culture media (40% Dulbecco's modified Eagle's medium, 60% F12 was supplemented with fetal bovine serum to 10%, Gibco-BRL) was changed daily. […] Addition/removal experiments included either adding or removing supplemented media on the indicated culture day, 24 hours after culture initiation was considered day 1. To detect transgene-expressing cells, cultures were fixed stained as previously described, with magenta-gal (BioSynth International Inc.) being substituted for X-gal. This was followed by alcian blue staining for cartilage-specific glycosaminoglycans. Alcian blue staining of magenta-gal stained cultures turned the red precipitate to a purple color, this is a result of incubating magenta-gal stained cells at pH 1. This double-staining technique enables transgene-expressing cells to be localized with respect to alcian blue stained cartilage nodules.

[3] = target: T2, RARα (Homo sapiens, UniProt P10276); experiment: Transient transfection: inhibition of all-trans RA induction of RARE luciferase construct in P19 cells, RARα; assay type: cell-based; details: 1 μM AGN194301, 100 nM all-trans RA
T2 construct: expressed in transfected cells; host or cells: P19 embryonal carcinoma cells
T2 sequence (P10276 1-462): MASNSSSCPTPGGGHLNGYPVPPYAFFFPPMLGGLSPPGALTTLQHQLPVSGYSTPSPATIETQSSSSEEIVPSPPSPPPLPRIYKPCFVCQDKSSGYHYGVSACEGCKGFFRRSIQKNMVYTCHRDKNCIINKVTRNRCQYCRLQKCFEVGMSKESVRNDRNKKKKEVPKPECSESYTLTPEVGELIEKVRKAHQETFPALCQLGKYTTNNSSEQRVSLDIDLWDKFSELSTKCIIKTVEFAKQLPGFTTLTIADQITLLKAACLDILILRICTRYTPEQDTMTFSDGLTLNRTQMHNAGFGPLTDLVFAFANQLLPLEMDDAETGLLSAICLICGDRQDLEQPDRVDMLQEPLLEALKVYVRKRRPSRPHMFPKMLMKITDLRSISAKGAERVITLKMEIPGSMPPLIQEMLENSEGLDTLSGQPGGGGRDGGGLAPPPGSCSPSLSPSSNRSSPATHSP
Method: as §1, §2

[4] = target: T3, RARγ (Homo sapiens, UniProt P13631); experiment: Transient transfection: inhibition of all-trans RA induction of RARE luciferase construct in P19 cells, RARγ; assay type: cell-based; details: 1 μM AGN194301, 100 nM all-trans RA
T3 construct: expressed in transfected cells; host or cells: P19 embryonal carcinoma cells
T3 sequence (P13631 1-454): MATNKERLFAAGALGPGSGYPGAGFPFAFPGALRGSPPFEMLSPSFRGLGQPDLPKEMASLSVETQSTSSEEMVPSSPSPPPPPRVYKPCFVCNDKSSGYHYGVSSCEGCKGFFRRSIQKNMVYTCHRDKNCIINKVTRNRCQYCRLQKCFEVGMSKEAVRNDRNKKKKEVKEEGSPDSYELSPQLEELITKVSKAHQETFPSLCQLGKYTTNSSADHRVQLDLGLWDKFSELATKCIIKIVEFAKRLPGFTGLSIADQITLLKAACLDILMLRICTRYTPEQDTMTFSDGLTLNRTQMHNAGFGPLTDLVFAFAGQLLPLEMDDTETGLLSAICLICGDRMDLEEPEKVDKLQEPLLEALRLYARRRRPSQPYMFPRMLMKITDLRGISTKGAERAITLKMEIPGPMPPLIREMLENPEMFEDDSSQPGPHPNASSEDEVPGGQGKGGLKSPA
Method: as §1, §2

Molecule | RARβ signaling (RARE activation) remaining [1] | rescue of cartilage nodule formation in Noggin-treated cultures ([2]; 1 μM AGN194301 + 10 ng/ml Noggin, day 6) | increase in number of cartilage nodules (more nodules than untreated cultures) ([2]; 1 μM AGN194301, 8 days in culture, wild-type cultures, FIG. 5M) | RARα signaling (RARE activation) remaining [3] | RARγ signaling (RARE activation) remaining [4] | reduction of cartilage nodule formation in comparison to untreated controls ([2]; 10 ng/ml Noggin, wild-type cultures) | number of cartilage nodules relative to control cultures ([2]; Noggin alone 10 ng/ml, FIG. 6d)
Cc1ccc(C2=CC(C)(C)Oc3c(Br)cc(C(=O)Nc4ccc(C(=O)O)c(F)c4)cc32)cc1 [AGN194301, 2-Fluoro-4-[(1-(8-bromo-2,2-dimethyl-4-(4-methylphenyl)-2-H-chromen-6-yl)-methanoyl)-amino]-benzoic acid] | ~18 % of controls | resembled untreated cultures; also recorded: comparable to that of control cultures | 60% | ~0.3 % of controls | ~26 % of controls | – | –
B1 | – | – | – | – | – | ~84% | ~10 % of that of control cultures
